In patent US4820694A, “Modifications of 3-O-demethylmycinose in macrocin and lactenocin” (priority 1986, dated 1989):
In brackets after ≈: the same amount, converted by molar mass. Like-named read-outs stand apart in the source and are kept apart here.

Experiments:
Assay type in all cases: cell-based
Streptococcus sp. 19F = assay: broth-dilution microtiter MIC test; details: Streptococcus, SP.19F
Description: (§1) The MIC's in Table III were determined by standard agar-dilution assays. The MIC's in Table IV were obtained using conventional brothdilution microtiter tests.

[1] = system: Pasteurella hemolytica 22C; assay: broth-dilution microtiter MIC test; details: Pasteurella, 22C
Description: as §1

Mycoplasma hyorhinis 29E = assay: broth-dilution microtiter MIC test; details: Mycoplasma, 29E
Description: as §1

[2] = system: Pasteurella multocida 60A; assay: broth-dilution microtiter MIC test; details: Pasteurella multocida, 60A
Description: as §1

[3] = system: Pasteurella multocida 40G; assay: broth-dilution microtiter MIC test; details: Pasteurella multocida, 40G
Description: as §1

[4] = system: Pasteurella multocida 22A; assay: broth-dilution microtiter MIC test; details: Pasteurella multocida, 22A
Description: as §1

[5] = system: Mycoplasma gallisepticum 29C; assay: broth-dilution microtiter MIC test; details: Mycoplasmoides gallisepticum, 29C
Description: as §1

[6] = system: Pasteurella multocida 68C; assay: broth-dilution microtiter MIC test; details: Pasteurella multocida, 68C
Description: as §1

[7] = system: Pasteurella hemolytica 41D; assay: broth-dilution microtiter MIC test; details: Pasteurella, 41D
Description: as §1

[8] = system: Pasteurella hemolytica 23C; assay: broth-dilution microtiter MIC test; details: Pasteurella, 23C
Description: as §1

[9] = system: Mycoplasma gallisepticum 36H; assay: broth-dilution microtiter MIC test; details: Mycoplasmoides gallisepticum, 36H
Description: as §1

[10] = system: Bordetella bronchiseptica; assay: broth-dilution microtiter MIC test; details: Bordetella bronchiseptica
Description: as §1

Mycoplasma synoviae 40A = assay: broth-dilution microtiter MIC test; details: Mycoplasmopsis synoviae, 40A
Description: as §1

[11] = system: Mycoplasma gallisepticum 15E; assay: broth-dilution microtiter MIC test; details: Mycoplasmoides gallisepticum, 15E
Description: as §1

[12] = system: Pasteurella multocida 17E; assay: broth-dilution microtiter MIC test; details: Pasteurella multocida, 17E
Description: as §1

[13] = system: Staphylococcus aureus 19C; assay: broth-dilution microtiter MIC test; details: Staphylococcus aureus, 19C
Description: as §1

[14] = system: Streptococcus pneumoniae Park I; assay: microbe, parasite or virus in culture; details: Streptococcus pneumoniae
Description: as §1

[15] = system: Staphylococcus aureus S13E; assay: microbe, parasite or virus in culture; details: Staphylococcus aureus, S13E
Description: as §1

[16] = system: Staphylococcus aureus X400; assay: standard agar-dilution MIC assay; details: Staphylococcus aureus, X400
Description: as §1

[17] = system: Staphylococcus epidermidis EPI1; assay: standard agar-dilution MIC assay; details: Staphylococcus epidermidis, EPI1
Description: as §1

[18] = system: Staphylococcus epidermidis EP12; assay: standard agar-dilution MIC assay
Description: as §1

[19] = system: Pseudomonas aeruginosa X239; assay: standard agar-dilution MIC assay; details: Pseudomonas aeruginosa, X239
Description: as §1

[20] = system: Streptococcus Group D X66; assay: standard agar-dilution MIC assay; details: read-out: MIC
Description: as §1

[21] = system: Streptococcus Group D 9960; assay: standard agar-dilution MIC assay; details: GROUPD9960, read-out: MIC
Description: as §1

[22] = system: Haemophilus influenzae C.L.; assay: standard agar-dilution MIC assay; details: Haemophilus influenzae
Description: as §1

[23] = system: Streptococcus pyogenes C203; assay: standard agar-dilution MIC assay; details: Streptococcus pyogenes, C203
Description: as §1

[24] = system: Haemophilus influenzae 76; assay: standard agar-dilution MIC assay; details: Haemophilus influenzae, 76
Description: as §1

[25] = system: Klebsiella pneumoniae X68; assay: standard agar-dilution MIC assay; details: Klebsiella pneumoniae, X68
Description: as §1

[26] = system: Staphylococcus aureus V41; assay: standard agar-dilution MIC assay; details: Staphylococcus aureus, V41
Description: as §1

[27] = system: Staphylococcus aureus X1.1; assay: standard agar-dilution MIC assay; details: Staphylococcus aureus, X1.1
Description: as §1

Escherichia coli EC14 = assay: standard agar-dilution MIC assay
Description: as §1

[28] = broth-dilution microtiter, read-out: MIC

With CCC1OC(=O)CC(O)C(C)C(OC2OC(C)C(OC3CC(C)(O)C(O)C(C)O3)C(N(C)C)C2OC(C)=O)C(CC=O)CC(C)C(=O)C=CC(C)=CC1COC1OC(C)C(OC(C)=O)C(OC(C)=O)C1OC (centres unmarked) [Compound 3, 2',3'",4'"-Tri-O-acetyl-macrocin] the MIC (Streptococcus sp. 19F) was 3.12 µg/mL (≈ 3.03 µM), the MIC [1, 28] was greater than 50 µg/mL and the MIC (Mycoplasma hyorhinis 29E) was 25 µg/mL (≈ 24.3 µM). For the same compound, the MIC ([2]; broth-dilution microtiter, Avian isolate, read-out: MIC) was greater than 50 µg/mL, the MIC [3, 28] was greater than 50 µg/mL and the MIC [4, 28] was greater than 50 µg/mL. The MIC [5] was 3.12 µg/mL (≈ 3.03 µM), the MIC [6, 28] was greater than 50 µg/mL and the MIC [7, 28] was greater than 50 µg/mL. It also gave an MIC [8, 28] greater than 50 µg/mL, an MIC [9, 28] greater than 50 µg/mL and an MIC [10, 28] greater than 50 µg/mL. For the same compound, the MIC (Mycoplasma synoviae 40A; [28]) was 12.5 µg/mL (≈ 12.2 µM), the MIC [11, 28] was greater than 50 µg/mL and the MIC ([12]; broth-dilution microtiter, Bovine isolate, read-out: MIC) was greater than 50 µg/mL. The MIC [13, 28] was 6.25 µg/mL (≈ 6.08 µM), the MIC ([14]; agar-dilution, read-out: MIC) was 1 µg/mL (≈ 0.973 µM) and the MIC [15] was 4 µg/mL (≈ 3.89 µM). It also gave an MIC [16] of 4 µg/mL (≈ 3.89 µM), an MIC ([17]; agar-dilution, read-out: MIC) of 2 µg/mL (≈ 1.95 µM) and an MIC ([18]; agar-dilution, read-out: MIC) of 2 µg/mL (≈ 1.95 µM). It also gave an MIC ([19]; agar-dilution, read-out: MIC) greater than 128 µg/mL, an MIC [20] of 8 µg/mL (≈ 7.78 µM) and an MIC [21] of 4 µg/mL (≈ 3.89 µM). The MIC ([22]; agar-dilution, Ampicillin-sensitive strain, read-out: MIC) was greater than 128 µg/mL, the MIC ([23]; agar-dilution, read-out: MIC) was 1 µg/mL (≈ 0.973 µM) and the MIC ([24]; agar-dilution, Ampicillin-resistant strain, read-out: MIC) was 2 µg/mL (≈ 1.95 µM). It also gave an MIC ([25]; agar-dilution, read-out: MIC) greater than 128 µg/mL, an MIC ([26]; agar-dilution, Penicillin-resistant strain, read-out: MIC) of 2 µg/mL (≈ 1.95 µM) and an MIC ([27]; agar-dilution, read-out: MIC) of 2 µg/mL (≈ 1.95 µM). For the same compound, the MIC (Escherichia coli EC14; agar-dilution, read-out: MIC) was greater than 128 µg/mL.

Compound CCC1OC(=O)CC(O)C(C)C(OC2OC(C)C(OC3CC(C)(O)C(O)C(C)O3)C(N(C)C)C2OC(C)=O)C(CC=O)CC(C)C(=O)C=CC(C)=CC1COC1OC(C)C(OC(=O)Cc2ccccc2)C(OC(=O)Cc2ccccc2)C1OC (centres unmarked) [Compound 11, 2'-O-Acetyl-3'",4'"-di-O-phenylacetylmacrocin] has an MIC (Streptococcus sp. 19F) of 3.12 µg/mL (≈ 2.64 µM), an MIC [1] greater than 50 µg/mL and an MIC (Mycoplasma hyorhinis 29E) of 12.5 µg/mL (≈ 10.6 µM). For the same compound, the MIC [2] was greater than 50 µg/mL, the MIC [3] was greater than 50 µg/mL and the MIC [4] was greater than 50 µg/mL. It also gave an MIC [5] of 3.12 µg/mL (≈ 2.64 µM), an MIC [6] greater than 50 µg/mL and an MIC [7] greater than 50 µg/mL. For the same compound, the MIC [8] was greater than 50 µg/mL, the MIC [9] was 50 µg/mL (≈ 42.4 µM) and the MIC [10] was greater than 50 µg/mL. For the same compound, the MIC (Mycoplasma synoviae 40A) was 12.5 µg/mL (≈ 10.6 µM), the MIC [11] was 25 µg/mL (≈ 21.2 µM) and the MIC [12] was greater than 50 µg/mL. For the same compound, the MIC [13] was 50 µg/mL (≈ 42.4 µM), the MIC [14] was 1 µg/mL (≈ 0.847 µM) and the MIC [15] was 32 µg/mL (≈ 27.1 µM). For the same compound, the MIC [16] was 64 µg/mL (≈ 54.2 µM), the MIC [17] was 32 µg/mL (≈ 27.1 µM) and the MIC [18] was 32 µg/mL (≈ 27.1 µM). It also gave an MIC [19] greater than 128 µg/mL, an MIC [20] of 32 µg/mL (≈ 27.1 µM) and an MIC [21] of 16 µg/mL (≈ 13.6 µM). It also gave an MIC [22] greater than 128 µg/mL, an MIC [23] of 4 µg/mL (≈ 3.39 µM) and an MIC [24] greater than 128 µg/mL. The MIC [25] was greater than 128 µg/mL, the MIC [26] was 16 µg/mL (≈ 13.6 µM) and the MIC [27] was 16 µg/mL (≈ 13.6 µM). The MIC (Escherichia coli EC14) was greater than 128 µg/mL.
